Test results published in US20260256797A1, “NOVEL INDENONE DERIVATIVES AND USES THEREOF” (AMYLOID SOLUTION INC., priority 2022, published 2026).

Assays:
Aβ1-42 = target: T1, Aβ1-42 (Homo sapiens, UniProt P05067); assay: Amyloid-beta (Aβ) disaggregation test by thioflavin-T assay; type: biochemical; details: 50 μM Aβ1-42 aggregated 24 hours, then compound 0-500 μM for 48 hours at 37° C.
T1 construct: dissolving Aβ1-42 or Tau-RD3 (Tau repeat domain 3) monomer in DMSO
Experimental: (§1) Each compound was dissolved in DMSO to a concentration of 10 mM. Subsequently, the compound was diluted with 6% DMSO (in DW) and used.
(§2) Specifically, amyloid-beta and tau solutions were prepared by dissolving Aβ1-42 or Tau-RD3 (Tau repeat domain 3) monomer in DMSO to a concentration of 10 mM. Thereafter, each solution was diluted with DW to a concentration of 100 μM and stored on ice. Meanwhile, thioflavin-T was dissolved in 50 mM glycine buffer (pH 8.5) to a concentration of 5 mM. Thereafter, the resulting solution was diluted with 50 mM glycine buffer (pH 8.5) to a concentration of 5 μM and stored in a dark room while light was blocked.
(§3) Each of the amyloid-beta and tau solutions prepared according to Experimental Example 1.1 was added to a 1.5 mL microcentrifuge tube to a concentration of 50 μM or 35 µM, and then a reaction was allowed to occur therebetween at 37° C. for 24 hours. Each of the 1.5 mL microcentrifuge tubes in which amyloid-beta aggregation and tau aggregation had been completed was treated with each compound at a concentrated of 500 μM to 0 μM through serial dilution, and then a further reaction was allowed to occur therebetween at 37° C. for 48 hours. 25 μL of the reaction solution in which the reaction had been completed was added to each well of a 96-well plate for fluorescence analysis, and 75 μL of the previously prepared thioflavin-T solution was added to each well. After a reaction was allowed to occur at room temperature in the dark for 5 minutes, fluorescence values were measured at excitation 450 nm and emission 485 nm by using a multi-mode microplate reader.
(§4) The fluorescence value of a group (control) treated with amyloid-beta or tau alone, followed by aggregation for 72 hours was converted into a percentage value and expressed as 100, and amyloid-beta and tau aggregates, in which aggregation had been completed upon reaction for 24 hours, were treated with each compound at each concentration and a further reaction was allowed to occur therebetween for 48 hours, and then fluorescence values thereof were measured and converted into relative values. The results thereof are illustrated in FIGS. 1 to 6 and 7 to 12. In addition, EC50 values of the compounds of the present disclosure for amyloid-beta and tau, respectively are summarized in Table 1.

[1] = target: Tau-RD3 (Tau repeat domain 3) (Homo sapiens, UniProt P10636); assay: Tau disaggregation test by thioflavin-T assay; type: biochemical; details: 35 μM Tau-RD3 aggregated 24 hours, then compound 0-500 μM for 48 hours at 37° C.
Experimental: as §1, §2, §3, §4

T1 sequence (P05067 672-713 limits assumed): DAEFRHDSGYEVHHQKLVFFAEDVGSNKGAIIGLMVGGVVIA
Chain of Tau-RD3 (Tau repeat domain 3) (P10636 623-653 limits assumed): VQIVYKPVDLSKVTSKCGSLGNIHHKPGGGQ

EC50 (Aβ1-42): 2.3 µM | EC50 [1]: 19.9 µM
SMILES: COc1ccc(COCOc2ccc3c(c2)C(=O)C(c2cccnc2)=C3c2ccoc2)cc1 [Compound 50, 3-(furan-3-yl)-6-(((4-methoxybenzyl)oxy)methoxy)-2-(pyridin-3-yl)-1H-inden-1-one]
